Measured values published in patent US4482565A, “β-Lactam-containing antibacterial agents and β-lactamase inhibitors” (Farmitalia Carlo Erba S.p.A., priority 1981, dated 1984).
≈ marks a conversion by molar mass, not a printed value.

Key:
Assay type in all cases: cell-based
[1] = test system: Staphylococcus aureus 209P; experiment: in vitro antibacterial activity (MIC); conditions: collection strain, read-out: MIC (minimal inhibitory concentration)
[2] = test system: Staphylococcus aureus 153; experiment: in vitro antibacterial activity (MIC); conditions: lactamase producer, read-out: MIC (minimal inhibitory concentration)
[3] = test system: Staphylococcus aureus PV2; experiment: in vitro antibacterial activity (MIC); conditions: read-out: MIC (minimal inhibitory concentration)
[4] = test system: Staphylococcus aureus Smith; experiment: in vitro antibacterial activity (MIC); conditions: collection strain, read-out: MIC (minimal inhibitory concentration)
[5] = test system: Streptococcus pyogenes; experiment: in vitro antibacterial activity (MIC); conditions: in vitro, read-out: MIC (minimal inhibitory concentration)
[6] = test system: Escherichia coli B; experiment: in vitro antibacterial activity (MIC); conditions: in vitro; Escherichia coli B; collection strain; read-out: MIC (minimal inhibitory concentration)
[7] = test system: Escherichia coli V14; experiment: in vitro antibacterial activity (MIC); conditions: read-out: MIC (minimal inhibitory concentration)
[8] = test system: Escherichia coli V23; experiment: in vitro antibacterial activity (MIC); conditions: read-out: MIC (minimal inhibitory concentration)
[9] = test system: Enterobacter sp V19; experiment: in vitro antibacterial activity (MIC); conditions: read-out: MIC (minimal inhibitory concentration)
[10] = test system: Klebsiella pneumoniae ATCC 10031; experiment: in vitro antibacterial activity (MIC); conditions: ATCC10031, Klebsiella pneumoniae ATCC 10031 (first listing), read-out: MIC (minimal inhibitory concentration)
[11] = test system: Klebsiella sp. R2; experiment: in vitro antibacterial activity (MIC); conditions: read-out: MIC (minimal inhibitory concentration)
[12] = test system: Proteus vulgaris V15; experiment: in vitro antibacterial activity (MIC); conditions: read-out: MIC (minimal inhibitory concentration)
[13] = test system: Proteus mirabilis V15; experiment: in vitro antibacterial activity (MIC); conditions: read-out: MIC (minimal inhibitory concentration)
[14] = test system: Proteus mirabilis 525; experiment: in vitro antibacterial activity (MIC); conditions: in vitro; Proteus mirabilis 525; read-out: MIC (minimal inhibitory concentration)
[15] = test system: Shigella flexneri; experiment: in vitro antibacterial activity (MIC); conditions: read-out: MIC (minimal inhibitory concentration)
Method: A series of tests was carried out in vitro to compare the activities of (5R)-acetoxymethyl-2-acetoxymethyl-2-penum-3-carboxylate (Laboratory code FCE/20077/B40/341), (5R) acetoxymethyl-2-[(1-methyl-1H-tetrazol-5-yl)-thiomethyl]-2-penem-3-carboxylate (compound A), three reference compounds (ampicillin, cefoxitin, and thienamycin), and compound 387, which is (5R)-2-acetoxymethyl-6-(1-hydroxyethyl)-2-penem-3-carboxylic acid. The acetoxymethoxy ester of compound 387 is prepared in Example 51 and the sodium salt of the acid is prepared in Example 98 infra. Table 1 below reports the results of the above assays as MIC (minimal inhibitory concentration).

[16] = test system: Pseudomonas aeruginosa; experiment: in vitro antibacterial activity (MIC); conditions: in vitro, read-out: MIC (minimal inhibitory concentration)
[17] = test system: Salmonella typhimurium; experiment: in vitro antibacterial activity (MIC); conditions: Salmonella enterica, Salmonella typhimurium (first listing), read-out: MIC (minimal inhibitory concentration)
[18] = test system: Salmonella panamae F15; experiment: in vitro antibacterial activity (MIC); conditions: in vitro; Salmonella panamae F15; read-out: MIC (minimal inhibitory concentration)
[19] = test system: Salmonella Saint Paul F20; experiment: in vitro antibacterial activity (MIC); conditions: read-out: MIC (minimal inhibitory concentration)
[20] = test system: Salmonella derby F14; experiment: in vitro antibacterial activity (MIC); conditions: Salmonella enterica, read-out: MIC (minimal inhibitory concentration)
[21] = test system: Salmonella montevideo F16; experiment: in vitro antibacterial activity (MIC); conditions: Salmonella enterica, read-out: MIC (minimal inhibitory concentration)
[22] = test system: Escherichia coli B Cef R; experiment: in vitro antibacterial activity (MIC); conditions: read-out: MIC (minimal inhibitory concentration)
[23] = test system: Escherichia coli RGN 238; experiment: in vitro antibacterial activity (MIC); conditions: RGN238, lactamase producer, read-out: MIC (minimal inhibitory concentration)
[24] = test system: Escherichia coli P 453; experiment: in vitro antibacterial activity (MIC); conditions: P453; in vitro; Escherichia coli P 453; lactamase producer; read-out: MIC (minimal inhibitory concentration)
[25] = test system: Escherichia coli R 997; experiment: in vitro antibacterial activity (MIC); conditions: R997, read-out: MIC (minimal inhibitory concentration)
[26] = test system: Escherichia coli R 57 B; experiment: in vitro antibacterial activity (MIC); conditions: R57B; in vitro; Escherichia coli R 57 B; lactamase producer; read-out: MIC (minimal inhibitory concentration)
[27] = test system: Escherichia coli RP 1; experiment: in vitro antibacterial activity (MIC); conditions: RP1, read-out: MIC (minimal inhibitory concentration)
[28] = test system: Escherichia coli R 46; experiment: in vitro antibacterial activity (MIC); conditions: R46; in vitro; Escherichia coli R 46; lactamase producer; read-out: MIC (minimal inhibitory concentration)
[29] = test system: Escherichia coli R 6 K; experiment: in vitro antibacterial activity (MIC); conditions: R6K, read-out: MIC (minimal inhibitory concentration)
[30] = test system: Pseudomonas aeruginosa FI; experiment: in vitro antibacterial activity (MIC); conditions: collection strain, read-out: MIC (minimal inhibitory concentration)
[31] = test system: Pseudomonas aeruginosa ATCC 2598; experiment: in vitro antibacterial activity (MIC); conditions: ATCC2598, collection strain, read-out: MIC (minimal inhibitory concentration)
[32] = test system: Klebsiella aerogenes ATCC 1082 E; experiment: in vitro antibacterial activity (MIC); conditions: ATCC1082; in vitro; Klebsiella aerogenes ATCC 1082 E; lactamase producer; read-out: MIC (minimal inhibitory concentration)
[33] = test system: Klebsiella pneumoniae ATCC 10031; experiment: in vitro antibacterial activity (MIC), second listing of the strain; conditions: ATCC10031, collection strain (second listing), read-out: MIC (minimal inhibitory concentration)
[34] = test system: Enterobacter cloacae P 99; experiment: in vitro antibacterial activity (MIC); conditions: P99, read-out: MIC (minimal inhibitory concentration)
[35] = test system: Enterobacter cloacae 214; experiment: in vitro antibacterial activity (MIC); conditions: lactamase producer, read-out: MIC (minimal inhibitory concentration)
[36] = test system: Salmonella abortivoequina; experiment: in vitro antibacterial activity (MIC); conditions: collection strain, read-out: MIC (minimal inhibitory concentration)
[37] = test system: Salmonella typhimurium; experiment: in vitro antibacterial activity (MIC), collection strain; conditions: Salmonella enterica; in vitro; Salmonella Typhimurium; collection strain (second listing); read-out: MIC (minimal inhibitory concentration)
[38] = test system: Proteus mirabilis; experiment: as above; conditions: in vitro, collection strain, read-out: MIC (minimal inhibitory concentration)

CC1(C)S[C@@H]2[C@H](NC(=O)[C@H](N)c3ccccc3)C(=O)N2[C@H]1C(=O)O [Ampicillin]
MIC [1]: ≤ 0.19 µg/mL
MIC [2]: 1.56 µg/mL (≈ 4.46 µM)
MIC [3]: ≤ 0.19 µg/mL
MIC [4]: ≤ 0.19 µg/mL
MIC [5]: 3.12 µg/mL (≈ 8.93 µM)
MIC [6]: 0.39 µg/mL (≈ 1.12 µM)
MIC [7]: 1.56 µg/mL (≈ 4.46 µM)
MIC [8]: 3.12 µg/mL (≈ 8.93 µM)
MIC [9]: > 100 µg/mL
MIC [10]: 50 µg/mL (≈ 143 µM)
MIC [11]: 50 µg/mL (≈ 143 µM)
MIC [12]: 1.56 µg/mL (≈ 4.46 µM)
MIC [13]: ≤ 0.19 µg/mL
MIC [14]: 0.39 µg/mL (≈ 1.12 µM)
MIC [15]: ≤ 0.19 µg/mL
MIC [16]: 25 µg/mL (≈ 71.5 µM)
MIC [17]: 0.78 µg/mL (≈ 2.23 µM)
MIC [18]: 0.78 µg/mL (≈ 2.23 µM)
MIC [19]: 0.78 µg/mL (≈ 2.23 µM)
MIC [20]: 0.78 µg/mL (≈ 2.23 µM)
MIC [21]: 0.78 µg/mL (≈ 2.23 µM)
MIC [22]: > 100 µg/mL
MIC [23]: > 100 µg/mL
MIC [24]: > 100 µg/mL
MIC [25]: > 100 µg/mL
MIC [26]: 25 µg/mL (≈ 71.5 µM)
MIC [27]: > 100 µg/mL
MIC [28]: 25 µg/mL (≈ 71.5 µM)
MIC [29]: > 100 µg/mL
MIC [30]: > 100 µg/mL
MIC [31]: > 100 µg/mL
MIC [32]: > 100 µg/mL
MIC [33]: 25 µg/mL (≈ 71.5 µM)
MIC [34]: > 100 µg/mL
MIC [35]: > 100 µg/mL
MIC [36]: 0.19 µg/mL (≈ 0.544 µM)
MIC [37]: 0.78 µg/mL (≈ 2.23 µM)
MIC [38]: > 100 µg/mL

CC(=O)OCOC(=O)C1=C(CSc2nnnn2C)S[C@@H]2CC(=O)N12 [Compound A, (5R)-Acetoxymethyl-2-[(1-methyl-1-H-tetrazol-5-yl)-thiomethyl]-2-penem-3-carboxylate]
MIC [1]: 0.39 µg/mL (≈ 1.05 µM)
MIC [2]: 0.78 µg/mL (≈ 2.1 µM)
MIC [3]: 0.78 µg/mL (≈ 2.1 µM)
MIC [4]: 0.39 µg/mL (≈ 1.05 µM)
MIC [5]: 0.78 µg/mL (≈ 2.1 µM)
MIC [6]: 0.78 µg/mL (≈ 2.1 µM)
MIC [7]: 0.78 µg/mL (≈ 2.1 µM)
MIC [8]: 0.78 µg/mL (≈ 2.1 µM)
MIC [9]: > 100 µg/mL
MIC [10]: 3.12 µg/mL (≈ 8.4 µM)
MIC [12]: 6.25 µg/mL (≈ 16.8 µM)
MIC [13]: 0.78 µg/mL (≈ 2.1 µM)
MIC [14]: 0.78 µg/mL (≈ 2.1 µM)
MIC [15]: 0.39 µg/mL (≈ 1.05 µM)
MIC [16]: 0.39 µg/mL (≈ 1.05 µM)
MIC [17]: 0.78 µg/mL (≈ 2.1 µM)
MIC [18]: 0.78 µg/mL (≈ 2.1 µM)
MIC [19]: 0.78 µg/mL (≈ 2.1 µM)
MIC [20]: 0.78 µg/mL (≈ 2.1 µM)
MIC [21]: 0.78 µg/mL (≈ 2.1 µM)
